Values of other authors as cited in patent US10017479B2, “Process to make non nucleosidal reverse transcriptase inhibitors (NNRTI) for the treatment of HIV” (priority 2013, dated 2018).

What was measured:
[1] = test system: wild type strains of HIV-1
[2] = test system: mutated strains of HIV-1

In the case of `O=C(CSc1nnnn1-c1cccc2ccccc12)Nc1ccccc1[N+](=O)[O-]` [compound 3, 2-((1-(naphthalen-1-yl)-1H-tetrazol-5-yl)thio)-N-(2-nitrophenyl)actetamid-e], the “activity against the wild type strains of HIV-1” value [1] is given as “nanomolar activity” and the “activity against the mutated strains of HIV-1” value [2] is given as “nanomolar activity”.
